From PubChem BioAssay (NCI)
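Interpolation was linear, between the two tested concentrations surrounding the appropriate level; five concentrations were tested over 48 hours in 96-well plates. GI50: concentration for 50% inhibition of growth. TGI is the concentration that stops growth completely.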

Assays:
Experiment in all cases: DTP human tumour cell line panel, 48 h
SR leukemia = test system: SR leukemia
SNB-19 CNS = test system: SNB-19 CNS
TK-10 renal = test system: TK-10 renal
NCI-H522 lung = test system: NCI-H522 lung
SF-539 CNS = test system: SF-539 CNS
CAKI-1 renal = test system: CAKI-1 renal
HOP-92 NSCLC = test system: HOP-92 NSCLC
K-562 leukemia = test system: K-562 leukemia
MALME-3M melanoma = test system: MALME-3M melanoma
UACC-257 melanoma = test system: UACC-257 melanoma
DU-145 prostate = test system: DU-145 prostate
OVCAR-5 ovarian = test system: OVCAR-5 ovarian
MCF7 breast = test system: MCF7 breast
SK-MEL-5 melanoma = test system: SK-MEL-5 melanoma
SF-268 CNS = test system: SF-268 CNS
A498 renal = test system: A498 renal
HOP-62 NSCLC = test system: HOP-62 NSCLC
COLO 205 colon = test system: COLO 205 colon
NCI-H460 lung = test system: NCI-H460 lung
NCI-H23 lung = test system: NCI-H23 lung
RPMI-8226 leukemia = test system: RPMI-8226 leukemia
OVCAR-4 ovarian = test system: OVCAR-4 ovarian
BT-549 breast = test system: BT-549 breast
PC-3 prostate = test system: PC-3 prostate
IGROV1 ovarian = test system: IGROV1 ovarian
HCT-15 colon = test system: HCT-15 colon
HS 578T breast = test system: HS 578T breast

SMILES: Cc1nc2sc(C(=O)Nc3cccc4ccccc34)c(N)c2cc1C(=O)c1ccccc1
- GI50 (SR leukemia): 632 nM
- TGI (SR leukemia): > 50000 nM
- GI50 (SNB-19 CNS): 2410 nM
- TGI (SNB-19 CNS): > 50000 nM
- GI50 (TK-10 renal): > 50000 nM
- TGI (TK-10 renal): > 50000 nM
- GI50 (NCI-H522 lung): 1520 nM
- TGI (NCI-H522 lung): > 50000 nM
- GI50 (SF-539 CNS): 1060 nM
- TGI (SF-539 CNS): 2710 nM
- GI50 (CAKI-1 renal): 1620 nM
- TGI (CAKI-1 renal): > 50000 nM
- GI50 (HOP-92 NSCLC): 6820 nM
- TGI (HOP-92 NSCLC): > 50000 nM
- GI50 (K-562 leukemia): 930 nM
- TGI (K-562 leukemia): > 50000 nM
- GI50 (MALME-3M melanoma): 3860 nM
- TGI (MALME-3M melanoma): > 50000 nM
- GI50 (UACC-257 melanoma): > 50000 nM
- TGI (UACC-257 melanoma): > 50000 nM
- GI50 (DU-145 prostate): 1940 nM
- TGI (DU-145 prostate): > 50000 nM
- GI50 (OVCAR-5 ovarian): 2270 nM
- TGI (OVCAR-5 ovarian): > 50000 nM
- GI50 (MCF7 breast): 1530 nM
- TGI (MCF7 breast): > 50000 nM
- GI50 (SK-MEL-5 melanoma): 1920 nM
- TGI (SK-MEL-5 melanoma): 12400 nM
- GI50 (SF-268 CNS): 3540 nM
- TGI (SF-268 CNS): > 50000 nM
- GI50 (A498 renal): 150 nM
- TGI (A498 renal): 1170 nM
- GI50 (HOP-62 NSCLC): 2530 nM
- TGI (HOP-62 NSCLC): > 50000 nM
- GI50 (COLO 205 colon): 1650 nM
- TGI (COLO 205 colon): > 50000 nM
- GI50 (NCI-H460 lung): 727 nM
- TGI (NCI-H460 lung): 6320 nM
- GI50 (NCI-H23 lung): 3550 nM
- TGI (NCI-H23 lung): > 50000 nM
- GI50 (RPMI-8226 leukemia): 2460 nM
- TGI (RPMI-8226 leukemia): > 50000 nM
- GI50 (OVCAR-4 ovarian): 3210 nM
- TGI (OVCAR-4 ovarian): > 50000 nM
- GI50 (BT-549 breast): 1870 nM
- TGI (BT-549 breast): > 50000 nM
- GI50 (PC-3 prostate): 1780 nM
- TGI (PC-3 prostate): > 50000 nM
- GI50 (IGROV1 ovarian): 1800 nM
- TGI (IGROV1 ovarian): > 50000 nM
- GI50 (HCT-15 colon): 1410 nM
- TGI (HCT-15 colon): > 50000 nM
- GI50 (HS 578T breast): 1300 nM
- TGI (HS 578T breast): > 50000 nM
